In data set [1] the test system is human prostate. As to the kind of experiment: Transperineal intraprostatic EtOH injection in heart-beating cadaveric organ donors. As to conditions: for average volume of the lesion: five human prostates, 1 cm porous segment.
In data set [2] the test system is canine prostate. As to the kind of experiment: Chronic canine experiment: intraprostatic EtOH injection, four weeks observation, autopsy and histology.
Data set [3] relates to canine prostate. As to conditions: for lesion volume: 1 cm porous segment, 2 h after injection.
Experimental: Intraprostatic ethanol injections were performed in eight Beagle dogs for acute experiments. Animals received premedication with medetomidin (0.004 mg/kg), metadon (0.3 mg/kg), and acepromazil (0.02 mg/kg). Anesthesia was induced with propofol (1.5-2 mg/kg) and maintained by propofol (10 mg/kg/hour) and fentanyl (0.24 mg/kg/hour). Prostate exposure was performed using lower midline abdominal incisions and blunt dissection of surrounding tissues. The porous needle was stabilized with a fixation apparatus attached to the operating table and was deployed with a protective sheath in the lateral lobe of the prostate. […] Where possible, the distal end of the sheath was kept at least 2 mm from the pseudocapsule. […] Injections in both lateral lobes of each canine were performed. […] In the remaining experiments, 0.5, 1, 1.5, or 2 ml was injected into each prostatic lobe. In five experiments, a needle with a 1 cm long microporous segment was used, while a 2 cm long segment was used in one experiment. The tissue resistance during injections was measured by including the pressure transduced between the pump and the needle. Two hours following the second injection, the animals were anaesthetised by an intramuscular injection of medetomidine and ketamine, followed by intravenous injection of pentobarbital, and euthanized using exsanguination.
Histology slides were converted to digital images.

SMILES strings stand for the structures. Several values for one entry are separate records, joined by “and”; a condition that tells them apart may be missing. Equal entries are not always repeated. Where two headings read alike, the source gives them in different places.

The results in this text go back to patent US20250058082A1, “TRANSPERINEAL, TRANSRECTAL OR TRANSURETHRAL ADMINISTRATION OF ANTI-PROSTATE CANCER AGENTS FOR TREATING PROSTATE CANCER” (JESSENIUS FACULTY OF MEDICINE OF COMENIUS UNIVERSITY IN …, priority 2021, published 2025).

As for `CCO` [EtOH, ethanol], the “average volume of the lesion” value in data set [1] (2 ml injected per lobe) came out at 0.978 mL; in data set [1] (3 ml injected per lobe), 1.742 mL. In data set [1] (average, human prostates), the “lesion size with 3 ml relative to 2 ml” value is 1.78 ×. Also, the extraprostatic tissue injury result in data set [1] (human prostates) was “no evidence to the extraprostatic tissue injury was observed”. In addition, the lesion localization entry in data set [1] (human prostates) is on record as “In all cases the lesion was localized within the prostate”. The prostatic capsule integrity entry in data set [1] (human prostates) is listed as “remained intact”. Also, in data set [2] (animals with wound swelling, lasted less than 24 hours), the “transient increase in body temperature” value is 38.5 °C and 39 °C. Moreover, the “extraprostatic leak during injection” value in data set [2] (chronic study) is reported as “free of exptraprostatic leak”; in data set [3] (dog, in vivo), “No extraprostatic leak”. In addition, the immediate complications result in data set [2] (chronic study) is reported as “No immediate complications occurred”. The long-term complications entry in data set [2] (chronic study, four weeks observation) was “swelling of the wound in two animals and serous exudation in one animal”. Besides, the “damage to adjacent structures at prostatectomy” value in data set [2] (four weeks after injection) is given as “no damage to adjacent structures”. Further, the “tissue defects on whole mount sections” value in data set [2] (four weeks after injection, H&E) is “tissue defects (cavities) in all prostatic lobes injected with 1, 1.5, and 2 ml”. In data set [2] (four weeks after injection, histology), the prostatic pseudocapsule area entry is on record as “showed no abnormalities”. The lesion volume is 208±58 mm^3 in data set [3] (0.5 ml EtOH injected per lobe), 588±112 mm^3 in data set [3] (1.0 ml EtOH injected per lobe), 791±338 mm^3 in data set [3] (1.5 ml EtOH injected per lobe) and 1158±200 mm^3 in data set [3] (2.0 ml EtOH injected per lobe). Besides, in data set [3] (2 cm porous segment compared with 1 cm), the “tissue infiltration with 2 cm porous segment needle” value was “larger areas of tissue infiltration”. The “necrotic areas, share of the section” value in data set [3] (canine prostate section, FIG. 4) is on record as “more than 80%”. The prostatic pseudocapsule integrity entry in data set [3] (dog, in vivo) is recorded as “remained intact without evidence of disruption”.
